Measurements: the RepoRT retention time repository

Test: HILIC, Waters ACQUITY UPLC BEH Amide, 100 × 2.1 mm, 1.7 µm; A: water + 0.125% formic acid + 10 mM ammonium formate; B: 5% water + 95% acetonitrile + 0.125% formic acid + 10 mM ammonium formate; gradient (min/%B) 0/100 2/100 7.7/70 9.5/40 10.25/30 12.75/100 17/100
Conditions: stereoisomer not certain

Row | Compound | LC retention time [min]
1 | O=C(O)C1CSCN1 (stereo unspecified) [Thiazolidine-4-carboxylic acid] | 6.92
2 | CC(N)C(O)c1ccccc1 (stereo unspecified) [Phenylpropanolamine] | 5.29
3 | Nc1nc(=O)n(C2OC(CO)C(O)C2O)cc1CO (stereo unspecified) [5-Hydroxymethylcytidine] | 7.54
4 | O=Cc1c[nH]c2ccccc12 [Indole-3-carboxaldehyde] | 1.16
5 | O=C1C2CCCCC2C(=O)N1CCCCN1CCN(c2nsc3ccccc23)CC1 (stereo unspecified) [Perospirone] | 2.14
6 | NC(CO)C(=O)O (stereo unspecified) [Serine] | 8.73
7 | CN(C)C(CCCN=C(N)N)C(=O)O (stereo unspecified) [N,N-Dimethylarginine] | 9.1
8 | NC(N)=NCCCCC(N)C(=O)O (stereo unspecified) [Homoarginine] | 9.34
9 | O=C(O)C1CCCN1 (stereo unspecified) [Proline] | 7.83
10 | CN1CCN(CCCN2c3ccccc3Sc3ccc(C(F)(F)F)cc32)CC1 [Trifluoperazine] | 2.15
11 | COc1cc(C(=O)O)cc(OC)c1O [Syringic acid] | 1.35
12 | OCC(O)C(O)CO (stereo unspecified) [Threitol] | 1.56
13 | CCC1(O)C(=O)OCc2c1cc1n(c2=O)Cc2cc3c(CN(C)C)c(O)ccc3nc2-1 (stereo unspecified) [Topotecan] | 5.72
14 | c1ccc(C2CN3CCSC3=N2)cc1 (stereo unspecified) [Levamisole] | 2.95
15 | O=C(O)C=Cc1ccc(Cn2ccnc2)cc1 [Ozagrel] | 2.99
16 | COC1C(CO)OC(n2ccc(=O)[nH]c2=O)C1O (stereo unspecified) [3'-O-Methyluridine] | 2.42
17 | NC(=O)OCC(COC(N)=O)c1ccccc1 [Felbamate] | 1.2
18 | C=Cc1ccc(O)c(OC)c1 [2-Methoxy-4-vinylphenol] | 8.71
19 | CC(N)C(=O)NC(CCC(N)=O)C(=O)O (stereo unspecified) [Ala-Gln] | 9.11
20 | O=CC(O)C(O)C(O)C(O)CO (stereo unspecified) [Glucose] | 1.84
21 | CC(C)(CO)C(O)C(=O)NCCCO (stereo unspecified) [Panthenol] | 1.9
22 | NC(CS)C(=O)O (stereo unspecified) [Cysteine] | 5.31
23 | NCCCCN=C(N)N [Agmatine] | 8.92
24 | CCCC=CC=O [2-Hexenal] | 1.39

Row | Compound | LC retention time [min]
25 | CNc1nc2c(ncn2C2OC(CO)C(O)C2O)c(=O)[nH]1 (stereo unspecified) [N2-Methylguanosine] | 6.4
26 | CCCCCCCCO [Octanol] | 8.47
27 | NC(CC(=O)O)C(=O)O (stereo unspecified) [Aspartic acid] | 9.33
28 | CC[N+](C)(CC)CCOC(=O)C(O)(c1ccccc1)C1CCCCC1 (stereo unspecified) [Oxyphenonium] | 2.01
29 | Nc1nc2c(ncn2C2CC(O)C(COP(=O)(O)O)O2)c(=O)[nH]1 (stereo unspecified) [2'-Deoxyguanosine 5'-monophosphate] | 9.25
30 | Nc1ncnc2c1ncn2C1OC2COP(=O)(O)OC2C1O (stereo unspecified) [Adenosine 3',5'-cyclic monophosphate] | 7.62
31 | O=[N+]([O-])c1cc[n+]([O-])c2ccccc12 [4-Nitroquinoline-N-oxide] | 1.14
32 | CCC(C)C(NC(=O)CN)C(=O)O (stereo unspecified) [Gly-Ile] | 7.67
33 | Nc1nnc(-c2cccc(Cl)c2Cl)c(N)n1 [Lamotrigine] | 1.98
34 | Nc1ncnc2c1ncn2C1CC2OP(=O)(O)OCC2O1 (stereo unspecified) [3',5'-Cyclic dAMP] | 7.29
35 | CC12CCC3c4ccc(O)cc4CCC3C1CC(OC1OC(C(=O)O)C(O)C(O)C1O)C2O (stereo unspecified) [16-Glucuronide-estriol] | 6.49
36 | C[n+]1cccc(C(N)=O)c1 [1-Methylnicotinamide] | 6.26
37 | COC(=O)C(N)Cc1ccc(O)cc1 (stereo unspecified) [Methyltyrosinate] | 4.23
38 | COc1ccc2c3c1OC1C(=O)CCC4(O)C(C2)N(C)CCC314 (stereo unspecified) [Oxycodone] | 4.58
39 | CCOc1cc(N)c(Cl)cc1C(=O)NCC1CN(Cc2ccc(F)cc2)CCO1 (stereo unspecified) [Mosapride] | 1.24
40 | COc1cccc(C2(O)CCCCC2CN(C)C)c1 (stereo unspecified) [Tramadol] | 2.52
41 | CC1NCCOC1c1ccccc1 (stereo unspecified) [Phenmetrazine] | 4.04
42 | c1c[nH]cn1 [Imidazole] | 4.53
43 | CNCC(O)c1ccc(O)cc1 (stereo unspecified) [Synephrine] | 5.67
44 | CC(C)(C)NCC(O)c1ccc(O)c(CO)c1 (stereo unspecified) [Albuterol] | 5.55
45 | NC(Cn1ccc(=O)[nH]c1=O)C(=O)O (stereo unspecified) [Willardiine] | 8.72
46 | O=c1n(CCCN2CCN(c3cccc(Cl)c3)CC2)nc2ccccn12 [Trazodone] | 2.38
47 | Cc1nnc2n1-c1ccc(Cl)cc1C(c1ccccc1)=NC2 [Alprazolam] | 1.34
48 | CC(=O)CCCCn1cnc2c1c(=O)n(C)c(=O)n2C [Lomifylline] | 1.09

Row | Compound | LC retention time [min]
49 | NC(N)=Nc1nc(CSCCC(N)=NS(N)(=O)=O)cs1 [Famotidine] | 5.59
50 | CC=CC(=O)N(CC)c1ccccc1C [Crotamiton] | 0.97
51 | CC12CCC3C4CCC(=O)C=C4CCC3C1CCC2O (stereo unspecified) [Nandrolone] | 1.06
52 | OC1CCCCC1N1CCC(c2ccccc2)CC1 (stereo unspecified) [Vesamicol] | 2.65
53 | O=C1OC(CO)C(O)C(O)C1O (stereo unspecified) [Gluconolactone] | 8.15
54 | C=CCC1(C(C)C#CCC)C(=O)NC(=O)N(C)C1=O (stereo unspecified) [Methohexital] | 6.9
55 | O=P(O)(O)Oc1ccccc1 [Phenylphosphoric acid] | 7.05
56 | NCCCC(N)C(=O)O (stereo unspecified) [Ornithine] | 9.6
57 | NC(CSSCC(N)C(=O)O)C(=O)O (stereo unspecified) [Cystine] | 9.97
58 | COc1ccc(CCN)cc1OC [Homoveratrylamine] | 4.78
59 | CC(=O)CCCCn1c(=O)c2c(ncn2C)n(C)c1=O [Pentoxifylline] | 1.09
60 | CC(=O)OCC=C(C)CCC=C(C)C [Nerylacetate] | 0.99
61 | COC1C=COC2(C)Oc3c(C)c(O)c4c(O)c(c(C=NN5CCN(C6CCCC6)CC5)c(O)c4c3C2=O)NC(=O)C(C)=CC=CC(C)C(O)C(C)C(O)C(C)C(OC(C)=O)C1C (stereo unspecified) [Rifapentine] | 1.81
62 | COc1cc(N)c(Cl)cc1C(=O)NC1CN2CCC1CC2 (stereo unspecified) [Zacopride] | 4.66
63 | CC(=O)N1CCCCCC1=O [N-Acetylcaprolactam] | 2.3
64 | CNC1CCC(c2ccc(Cl)c(Cl)c2)c2ccccc21 (stereo unspecified) [Sertraline] | 2.74
65 | CCCc1nc(C(C)(C)O)c(C(=O)O)n1Cc1ccc(-c2ccccc2-c2nn[nH]n2)cc1 [Olmesartan] | 4.76
66 | CN1C2CCC1C(C(=O)O)C(OC(=O)c1ccccc1)C2 (stereo unspecified) [Benzoylecgonine] | 3.63
67 | CNC(C(=O)O)C(C)C (stereo unspecified) [N-Methylvaline] | 6.99
68 | CC(=O)NC(Cc1c[nH]c2ccccc12)C(=O)O (stereo unspecified) [N-Acetyltryptophan] | 2.81
69 | O=c1ccc2ccccc2o1 [Coumarin] | 1.08
70 | CC(=O)NCCC(=O)NC(Cc1cnc[nH]1)C(=O)O [N-Acetyl-L-carnosine] | 8.35
71 | OCC1OC(OC2C(O)OC(CO)C(O)C2O)C(O)C(O)C1O (stereo not drawn) [2-alpha-Mannobiose] | 9.47
